Results reported in article PMC7438494 (Communications Biology, 2020).
“And” between values parts separate entries of the source, which are not always exact repeats. Equal entries are not always repeated. Where two headings read alike, the source gives them in different places.

Target: human ATP synthase (Homo sapiens, UniProt P00846+P05496)
Assay: biochemical
Type: biochemical
Details: for cyanide sensitive ATP produced, nmol/min/mg / cyanide sensitive ATP produced, pmol/min/mg: 60 min
[1] = BDQ 5e-6 uM, […], frozen human mito, BDQ in DMSO
[2] = BDQ 5e-6 uM, cyanide sensitive, frozen human mito, BDQ in DMSO
[3] = BDQ 5e-5 uM, […], frozen human mito, BDQ in DMSO
[4] = BDQ 5e-5 uM, cyanide sensitive, frozen human mito, BDQ in DMSO
[5] = BDQ 0.0005 uM, […], frozen human mito, BDQ in DMSO
[6] = BDQ 0.0005 uM, cyanide sensitive, frozen human mito, BDQ in DMSO
[7] = BDQ 0.0005 uM, cyanide sensitive, human
[8] = BDQ 0.005 uM, […], frozen human mito, BDQ in DMSO
[9] = BDQ 0.005 uM, cyanide sensitive, frozen human mito, BDQ in DMSO
[10] = BDQ 0.005 uM, cyanide sensitive, human
[11] = BDQ 0.05 uM, cyanide sensitive, human
[12] = BDQ 0.1 uM, […], frozen human mito, BDQ in DMSO
[13] = BDQ 0.1 uM, cyanide sensitive, frozen human mito, BDQ in DMSO
[14] = BDQ 0.1 uM, cyanide sensitive, human
[15] = BDQ 0.2 uM, […], frozen human mito, BDQ in DMSO
[16] = BDQ 0.2 uM, cyanide sensitive, frozen human mito, BDQ in DMSO
[17] = BDQ 0.2 uM, cyanide sensitive, human
[18] = BDQ 0.5 uM, […], frozen human mito, BDQ in DMSO
[19] = BDQ 0.5 uM, cyanide sensitive, frozen human mito, BDQ in DMSO

`COc1nc2ccc(Br)cc2cc1[C@@H](c1ccccc1)[C@@](O)(CCN(C)C)c1cccc2ccccc12` [BDQ, Bedaquiline] was tested, and the ATP synthesis was 7.2 nmol/min/mg, the inhibition at 0.85 µM was 46% and the “% activity, cyanide sensitive” value [1] was 78.2096%. For the same compound, the “% inhibition, cyanide sensitive” value [1] was 21.7904%, the “ATP produced, nmol/min/mg” value [1] was 6.85 nmol/min/mg and the “ATP produced, pmol/min/mg” value [1] was 6850.84 pmol/min/mg. For the same compound, the “cyanide sensitive ATP produced, nmol/min/mg” value [2] was 5.63 nmol/min/mg, the “cyanide sensitive ATP produced, pmol/min/mg” value [2] was 5632.76 pmol/min/mg and the “Cyanide sensitive ATP synthesis” value (BDQ 5e-6 uM, cyanide sensitive, human) was 6.1 nmol/min/mg and 8.3 nmol/min/mg. The “% activity, cyanide sensitive” value [3] was 74.3127%, the “% inhibition, cyanide sensitive” value [3] was 25.6873% and the “ATP produced, nmol/min/mg” value [3] was 6.57 nmol/min/mg. The “ATP produced, pmol/min/mg” value [3] was 6570.19 pmol/min/mg, the “cyanide sensitive ATP produced, nmol/min/mg” value [4] was 5.35 nmol/min/mg and the “cyanide sensitive ATP produced, pmol/min/mg” value [4] was 5352.10 pmol/min/mg. The “Cyanide sensitive ATP synthesis” value (BDQ 5e-5 uM, cyanide sensitive, human) was 5.6 nmol/min/mg and 8.1 nmol/min/mg, the “% activity” value [5] was 84.5005% and the “% inhibition” value [5] was 15.4995%. The “ATP produced, nmol/min/mg” value [5] was 7.12 nmol/min/mg, the “ATP produced, pmol/min/mg” value [5] was 7115.12 pmol/min/mg and the activity at 0.0005 µM (BDQ 0.0005 uM, […], frozen human mito, BDQ in DMSO, read-out: % activity) was 84.5%. It also gave an activity at 0.0005 µM (BDQ 0.0005 uM, […], frozen human mito, BDQ in DMSO, read-out: % activity, cyanide sensitive) of 81.9%, an inhibition at 0.0005 µM (BDQ 0.0005 uM, […], frozen human mito, BDQ in DMSO, read-out: % inhibition) of 15.5% and an inhibition at 0.0005 µM (BDQ 0.0005 uM, […], frozen human mito, BDQ in DMSO, read-out: % inhibition, cyanide sensitive) of 18.1%. The “cyanide sensitive ATP produced, nmol/min/mg” value [6] was 5.90 nmol/min/mg, the “cyanide sensitive ATP produced, pmol/min/mg” value [6] was 5897.03 pmol/min/mg and the “Cyanide sensitive ATP synthesis” value [7] was 7.7 nmol/min/mg and 4.7 nmol/min/mg and 7.8 nmol/min/mg. The “cyanide sensitive % activity” value [7] was 71.1%, the activity at 0.0005 µM (BDQ 0.0005 uM, cyanide sensitive, human, read-out: cyanide sensitive % activity) was 81.5% and the inhibition at 0.0005 µM (BDQ 0.0005 uM, cyanide sensitive, human, read-out: cyanide sensitive % inhibition) was 18.5%. For the same compound, the “% activity” value [8] was 99.3902%, the “% inhibition” value [8] was 0.6098% and the “ATP produced, nmol/min/mg” value [8] was 8.37 nmol/min/mg. The “ATP produced, pmol/min/mg” value [8] was 8368.87 pmol/min/mg, the activity at 0.005 µM (BDQ 0.005 uM, […], frozen human mito, BDQ in DMSO, read-out: % activity) was 99.4% and the activity at 0.005 µM (BDQ 0.005 uM, […], frozen human mito, BDQ in DMSO, read-out: % activity, cyanide sensitive) was 99.3%. For the same compound, the inhibition at 0.005 µM (BDQ 0.005 uM, […], frozen human mito, BDQ in DMSO, read-out: % inhibition) was 0.6%, the inhibition at 0.005 µM (BDQ 0.005 uM, […], frozen human mito, BDQ in DMSO, read-out: % inhibition, cyanide sensitive) was 0.713% and the “cyanide sensitive ATP produced, nmol/min/mg” value [9] was 7.15 nmol/min/mg. The “cyanide sensitive ATP produced, pmol/min/mg” value [9] was 7150.78 pmol/min/mg, the “Cyanide sensitive ATP synthesis” value [10] was 8.3 nmol/min/mg and 4.6 nmol/min/mg and 7.9 nmol/min/mg and the “cyanide sensitive % activity” value [10] was 72.3%. The activity at 0.005 µM (BDQ 0.005 uM, cyanide sensitive, human, read-out: cyanide sensitive % activity) was 88.5%, the “Cyanide sensitive ATP synthesis” value [11] was 6.8 nmol/min/mg and 4.7 nmol/min/mg and 3.8 nmol/min/mg and the “cyanide sensitive % activity” value [11] was 71.8% and 64.1% and 43.8%. The “cyanide sensitive % inhibition” value [11] was 28.2% and 35.9% and 56.2%, the “% activity” value [12] was 65.6953% and the “% inhibition” value [12] was 34.3047%. For the same compound, the “ATP produced, nmol/min/mg” value [12] was 5.53 nmol/min/mg, the “ATP produced, pmol/min/mg” value [12] was 5531.68 pmol/min/mg and the activity at 0.1 µM (BDQ 0.1 uM, […], frozen human mito, BDQ in DMSO, read-out: % activity) was 65.7%. The activity at 0.1 µM (BDQ 0.1 uM, […], frozen human mito, BDQ in DMSO, read-out: % activity, cyanide sensitive) was 59.9%, the inhibition at 0.1 µM (BDQ 0.1 uM, […], frozen human mito, BDQ in DMSO, read-out: % inhibition) was 34.3% and the inhibition at 0.1 µM (BDQ 0.1 uM, […], frozen human mito, BDQ in DMSO, read-out: % inhibition, cyanide sensitive) was 40.1%. The “cyanide sensitive ATP produced, nmol/min/mg” value [13] was 4.31 nmol/min/mg, the “cyanide sensitive ATP produced, pmol/min/mg” value [13] was 4313.60 pmol/min/mg and the “Cyanide sensitive ATP synthesis” value [14] was 8.1 nmol/min/mg and 6.1 nmol/min/mg and 5.4 nmol/min/mg and 6.3 nmol/min/mg and 7.4 nmol/min/mg. The “cyanide sensitive % activity” value [14] was 86.0% and 84.3% and 62.0% and 71.2% and 67.2%, the “% activity” value [15] was 69.7127% and the “% inhibition” value [15] was 30.2873%. For the same compound, the “ATP produced, nmol/min/mg” value [15] was 5.87 nmol/min/mg, the “ATP produced, pmol/min/mg” value [15] was 5869.95 pmol/min/mg and the activity at 0.2 µM (BDQ 0.2 uM, […], frozen human mito, BDQ in DMSO, read-out: % activity) was 69.7%. It also gave an activity at 0.2 µM (BDQ 0.2 uM, […], frozen human mito, BDQ in DMSO, read-out: % activity, cyanide sensitive) of 64.6%, an inhibition at 0.2 µM (BDQ 0.2 uM, […], frozen human mito, BDQ in DMSO, read-out: % inhibition) of 30.3% and an inhibition at 0.2 µM (BDQ 0.2 uM, […], frozen human mito, BDQ in DMSO, read-out: % inhibition, cyanide sensitive) of 35.4%. The “cyanide sensitive ATP produced, nmol/min/mg” value [16] was 4.65 nmol/min/mg, the “cyanide sensitive ATP produced, pmol/min/mg” value [16] was 4651.87 pmol/min/mg and the “Cyanide sensitive ATP synthesis” value [17] was 5.6 nmol/min/mg and 4.0 nmol/min/mg and 5.2 nmol/min/mg and 4.4 nmol/min/mg and 5.1 nmol/min/mg. The “cyanide sensitive % activity” value [17] was 55.4% and 59.9% and 49.8% and 46.9%, the “cyanide sensitive % inhibition” value [17] was 44.6% and 40.1% and 50.2% and 53.1% and the activity at 0.2 µM (BDQ 0.2 uM, cyanide sensitive, human, read-out: cyanide sensitive % activity) was 59.5%. For the same compound, the inhibition at 0.2 µM (BDQ 0.2 uM, cyanide sensitive, human, read-out: cyanide sensitive % inhibition) was 40.5%, the “% activity” value [18] was 36.7347% and the “% inhibition” value [18] was 63.2653%. For the same compound, the “ATP produced, nmol/min/mg” value [18] was 3.09 nmol/min/mg, the “ATP produced, pmol/min/mg” value [18] was 3093.14 pmol/min/mg and the activity at 0.5 µM (BDQ 0.5 uM, […], frozen human mito, BDQ in DMSO, read-out: % activity) was 36.7%. The activity at 0.5 µM (BDQ 0.5 uM, […], frozen human mito, BDQ in DMSO, read-out: % activity, cyanide sensitive) was 26%, the inhibition at 0.5 µM (BDQ 0.5 uM, […], frozen human mito, BDQ in DMSO, read-out: % inhibition) was 63.3% and the inhibition at 0.5 µM (BDQ 0.5 uM, […], frozen human mito, BDQ in DMSO, read-out: % inhibition, cyanide sensitive) was 74%. The “cyanide sensitive ATP produced, nmol/min/mg” value [19] was 1.88 nmol/min/mg and the “cyanide sensitive ATP produced, pmol/min/mg” value [19] was 1875.05 pmol/min/mg.
